Reference: patent US20240409585A1, “MACROCYCLIC IMMUNOMODULATORS” (priority 2021, published 2024)
Bridge positions count the residues as written; N and C are the ends. Square brackets hold non-standard residues; d marks the D form. Peptide text beside a SMILES is read from it. * marks the point of attachment. Phe(4-COOH) = N[C@@H](Cc1ccc(C(=O)O)cc1)C(=O)O; Bip = N[C@@H](Cc1ccc(-c2ccccc2)cc1)C(=O)O; Phe(3-Me) = Cc1cccc(C[C@H](N)C(=O)O)c1; Cha = N[C@@H](CC1CCCCC1)C(=O)O; Carboxymethyl = O=C(O)C*; NMeA = CN[C@@H](C)C(=O)O; Orn = NCCC[C@H](N)C(=O)O; Dab = NCC[C@H](N)C(=O)O

The compounds below were run against T1, PE-labeled human PD-L1-Ig binding to Jurkat cell line over-expressing human PD-1 (Jurkat-PD-1) (Homo sapiens, UniProt Q15116) (assay: Jurkat-PD-1 Cell Binding High-Content Screening Assay (CBA): Method 1). Conditions: Jurkat-hPD-1 cells, PE-labeled PD-L1-Ig 20 nM final; read-out: Jurkat HPDL1 PD1 IC50 (uM) (Method 1).
T1 construct: expressed in transfected cells; host or cells: Jurkat
T1 sequence (Q15116 25-288): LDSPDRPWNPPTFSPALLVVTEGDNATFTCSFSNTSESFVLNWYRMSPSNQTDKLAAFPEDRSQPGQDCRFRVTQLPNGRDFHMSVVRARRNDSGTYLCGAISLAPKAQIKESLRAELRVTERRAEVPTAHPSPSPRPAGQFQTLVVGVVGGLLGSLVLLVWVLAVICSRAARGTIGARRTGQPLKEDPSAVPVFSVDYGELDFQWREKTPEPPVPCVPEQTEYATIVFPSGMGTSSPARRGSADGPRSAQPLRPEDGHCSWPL

Row | IC50 [µM] | SMILES
1 | 0.12 | Cc1cccc(C[C@@H]2NC(=O)[C@H](CC(=O)O)NC(=O)[C@H](Cc3ccc(OCC(=O)O)cc3)NC(=O)[C@H]([C@@H](C)O)NC(=O)CSC[C@@H](C(N)=O)NC(=O)[C@H](CC(N)=O)NC(=O)[C@H](C(C)C)NC(=O)[C@H](CC3CCCCC3)NC(=O)[C@H](CC(N)=O)NC(=O)[C@@H](CC(C)C)NC(=O)[C@H](C)N(C)C(=O)[C@H](Cc3ccc(OCC(=O)O)cc3)NC(=O)[C@H](Cc3ccc(-c4ccccc4)cc3)NC(=O)[C@H](Cc3ccc(OCC(=O)O)cc3)NC2=O)c1 [Compound 1675] ({CH2CO}-TY(Carboxymethyl)D[Phe(3-Me)]Y(Carboxymethyl)[Bip]Y(Carboxymethyl)[NMeA][dL]N[Cha]VNC-NH2; thioether N-14)
2 | 0.24 | Cc1cccc(C[C@@H]2NC(=O)[C@H](CC(=O)O)NC(=O)[C@H](Cc3ccc(OCC(=O)O)cc3)NC(=O)[C@H]([C@@H](C)O)NC(=O)CSC[C@@H](C(N)=O)NC(=O)[C@H](CC(=O)O)NC(=O)[C@H](C(C)C)NC(=O)[C@H](CC3CCCCC3)NC(=O)[C@H](CC(N)=O)NC(=O)[C@@H](CC(C)C)NC(=O)[C@H](C)N(C)C(=O)[C@H](Cc3ccc(OCC(=O)O)cc3)NC(=O)[C@H](Cc3ccc(-c4ccccc4)cc3)NC(=O)[C@H](Cc3ccc(OCC(=O)O)cc3)NC2=O)c1 [Compound 1676] ({CH2CO}-TY(Carboxymethyl)D[Phe(3-Me)]Y(Carboxymethyl)[Bip]Y(Carboxymethyl)[NMeA][dL]N[Cha]VDC-NH2; thioether N-14)
3 | 0.15 | Cc1cccc(C[C@@H]2NC(=O)[C@H](CC(=O)O)NC(=O)[C@H](Cc3ccc(OCC(=O)O)cc3)NC(=O)[C@H]([C@@H](C)O)NC(=O)CSC[C@@H](C(N)=O)NC(=O)[C@H]([C@@H](C)O)NC(=O)[C@H](C(C)C)NC(=O)[C@H](CC3CCCCC3)NC(=O)[C@H](CC(N)=O)NC(=O)[C@@H](CC(C)C)NC(=O)[C@H](C)N(C)C(=O)[C@H](Cc3ccc(OCC(=O)O)cc3)NC(=O)[C@H](Cc3ccc(-c4ccccc4)cc3)NC(=O)[C@H](Cc3ccc(OCC(=O)O)cc3)NC2=O)c1 [Compound 1678] ({CH2CO}-TY(Carboxymethyl)D[Phe(3-Me)]Y(Carboxymethyl)[Bip]Y(Carboxymethyl)[NMeA][dL]N[Cha]VTC-NH2; thioether N-14)
4 | 0.03 | Cc1cccc(C[C@@H]2NC(=O)[C@H](CC(=O)O)NC(=O)[C@H](Cc3ccc(C(=O)O)cc3)NC(=O)[C@H](Cc3ccc(OCC(=O)O)cc3)NC(=O)CSC[C@@H](C(N)=O)NC(=O)[C@H](CO)NC(=O)[C@H](C(C)C)NC(=O)[C@H](CC3CCCCC3)NC(=O)[C@H](CC(N)=O)NC(=O)[C@@H](CC(C)C)NC(=O)[C@H](C)N(C)C(=O)[C@H](C(C)C)NC(=O)[C@H](Cc3ccc(-c4ccccc4)cc3)NC(=O)[C@H](CC(C)C)NC2=O)c1 [Compound 1681] ({CH2CO}-Y(Carboxymethyl)[Phe(4-COOH)]D[Phe(3-Me)]L[Bip]V[NMeA][dL]N[Cha]VSC-NH2; thioether N-14)

The next lines start with the compound.

Row | SMILES | IC50 [µM]
5 | Cc1cccc(C[C@@H]2NC(=O)[C@H](CC(=O)O)NC(=O)[C@H](Cc3ccc(OCC(=O)O)cc3)NC(=O)[C@H]([C@@H](C)O)NC(=O)CSC[C@@H](C(N)=O)NC(=O)[C@H]([C@@H](C)O)NC(=O)[C@H](C(C)C)NC(=O)[C@H](CC3CCCCC3)NC(=O)[C@H](CCN)NC(=O)[C@@H](CC(C)C)NC(=O)[C@H](C)N(C)C(=O)[C@H](Cc3ccc(OCC(=O)O)cc3)NC(=O)[C@H](Cc3ccc(-c4ccccc4)cc3)NC(=O)[C@H](Cc3ccc(OCC(=O)O)cc3)NC2=O)c1 [Compound 1672] ({CH2CO}-TY(Carboxymethyl)D[Phe(3-Me)]Y(Carboxymethyl)[Bip]Y(Carboxymethyl)[NMeA][dL][Dab][Cha]VTC-NH2; thioether N-14) | 0.09
6 | Cc1cccc(C[C@@H]2NC(=O)[C@H](CC(=O)O)NC(=O)[C@H](Cc3ccc(OCC(=O)O)cc3)NC(=O)[C@H]([C@@H](C)O)NC(=O)CSC[C@@H](C(N)=O)NC(=O)[C@H](CCC(=O)O)NC(=O)[C@H](C(C)C)NC(=O)[C@H](CC3CCCCC3)NC(=O)[C@H](CCN)NC(=O)[C@@H](CC(C)C)NC(=O)[C@H](C)N(C)C(=O)[C@H](Cc3ccc(OCC(=O)O)cc3)NC(=O)[C@H](Cc3ccc(-c4ccccc4)cc3)NC(=O)[C@H](Cc3ccc(OCC(=O)O)cc3)NC2=O)c1 [Compound 1673] ({CH2CO}-TY(Carboxymethyl)D[Phe(3-Me)]Y(Carboxymethyl)[Bip]Y(Carboxymethyl)[NMeA][dL][Dab][Cha]VEC-NH2; thioether N-14) | 0.09
7 | Cc1cccc(C[C@@H]2NC(=O)[C@H](CC(=O)O)NC(=O)[C@H](Cc3ccc(OCC(=O)O)cc3)NC(=O)[C@H]([C@@H](C)O)NC(=O)CSC[C@@H](C(N)=O)NC(=O)[C@H](CCCN)NC(=O)[C@H](C(C)C)NC(=O)[C@H](CC3CCCCC3)NC(=O)[C@H](CCN)NC(=O)[C@@H](CC(C)C)NC(=O)[C@H](C)N(C)C(=O)[C@H](Cc3ccc(OCC(=O)O)cc3)NC(=O)[C@H](Cc3ccc(-c4ccccc4)cc3)NC(=O)[C@H](Cc3ccc(OCC(=O)O)cc3)NC2=O)c1 [Compound 1674] ({CH2CO}-TY(Carboxymethyl)D[Phe(3-Me)]Y(Carboxymethyl)[Bip]Y(Carboxymethyl)[NMeA][dL][Dab][Cha]V[Orn]C-NH2; thioether N-14) | 0.07
8 | Cc1cccc(C[C@@H]2NC(=O)[C@H](CC(=O)O)NC(=O)[C@H](Cc3ccc(OCC(=O)O)cc3)NC(=O)[C@H]([C@@H](C)O)NC(=O)CSC[C@@H](C(N)=O)NC(=O)[C@H](CCC(N)=O)NC(=O)[C@H](C(C)C)NC(=O)[C@H](CC3CCCCC3)NC(=O)[C@H](CC(N)=O)NC(=O)[C@@H](CC(C)C)NC(=O)[C@H](C)N(C)C(=O)[C@H](Cc3ccc(OCC(=O)O)cc3)NC(=O)[C@H](Cc3ccc(-c4ccccc4)cc3)NC(=O)[C@H](Cc3ccc(OCC(=O)O)cc3)NC2=O)c1 [Compound 1677] ({CH2CO}-TY(Carboxymethyl)D[Phe(3-Me)]Y(Carboxymethyl)[Bip]Y(Carboxymethyl)[NMeA][dL]N[Cha]VQC-NH2; thioether N-14) | 0.16
9 | Cc1cccc(C[C@@H]2NC(=O)[C@H](CC(=O)O)NC(=O)[C@H](Cc3ccc(OCC(=O)O)cc3)NC(=O)[C@H]([C@@H](C)O)NC(=O)CSC[C@@H](C(N)=O)NC(=O)[C@H](CCC(=O)O)NC(=O)[C@H](C(C)C)NC(=O)[C@H](CC3CCCCC3)NC(=O)[C@H](CC(N)=O)NC(=O)[C@@H](CC(C)C)NC(=O)[C@H](C)N(C)C(=O)[C@H](Cc3ccc(OCC(=O)O)cc3)NC(=O)[C@H](Cc3ccc(-c4ccccc4)cc3)NC(=O)[C@H](Cc3ccc(OCC(=O)O)cc3)NC2=O)c1 [Compound 1679] ({CH2CO}-TY(Carboxymethyl)D[Phe(3-Me)]Y(Carboxymethyl)[Bip]Y(Carboxymethyl)[NMeA][dL]N[Cha]VEC-NH2; thioether N-14) | 0.23
10 | Cc1cccc(C[C@@H]2NC(=O)[C@H](CC(=O)O)NC(=O)[C@H](Cc3ccc(OCC(=O)O)cc3)NC(=O)[C@H]([C@@H](C)O)NC(=O)CSC[C@@H](C(N)=O)NC(=O)[C@H](CCCN)NC(=O)[C@H](C(C)C)NC(=O)[C@H](CC3CCCCC3)NC(=O)[C@H](CC(N)=O)NC(=O)[C@@H](CC(C)C)NC(=O)[C@H](C)N(C)C(=O)[C@H](Cc3ccc(OCC(=O)O)cc3)NC(=O)[C@H](Cc3ccc(-c4ccccc4)cc3)NC(=O)[C@H](Cc3ccc(OCC(=O)O)cc3)NC2=O)c1 [Compound 1680] ({CH2CO}-TY(Carboxymethyl)D[Phe(3-Me)]Y(Carboxymethyl)[Bip]Y(Carboxymethyl)[NMeA][dL]N[Cha]V[Orn]C-NH2; thioether N-14) | 0.17
